From patent US10280164B2, “Pyrazolopyridone compounds and uses thereof” (Incyte Corporation, priority 2016, dated 2019) come the findings set out here.

The target in this assay is HPK1 (Homo sapiens (Human), UniProt Q92918). The assay is described as follows: HPK1 Kinase Binding Assay (LanthaScreen Eu-Anti GST antibody / tracer 222). The note with it: active HPK1 (SignalChem M23-11G), tracer 222, one hour incubation at 25° C. As to the method: A stock solution of 1 mM test compound was prepared in DMSO. The compound plate was prepared by 3-fold and 11-point serial dilutions. 0.1 μL of the compound in DMSO was transferred from the compound plate to the white 384 well polystyrene plates. The assay buffer contained 50 mM HEPES, pH 7.5, 0.01% Tween-20, 5 mM MgCl2, 0.01% BSA, and 5 mM DTT. 5 μl of 4 nM active HPK1 (SignalChem M23-11G) prepared in the buffer was added to the plate. The enzyme concentration given was based on the given stock concentration reported by the vender. 5 μl of 18 nM tracer 222 (ThermoFisher PV6121) and 4 nM LanthaScreen Eu-Anti GST antibody (ThermoFisher PV5595) were added. After one hour incubation at 25° C., the plates were read on a PHERAstar FS plate reader (BMG Labtech). Ki values were determined.
Chain of HPK1 (Q92918 1-346): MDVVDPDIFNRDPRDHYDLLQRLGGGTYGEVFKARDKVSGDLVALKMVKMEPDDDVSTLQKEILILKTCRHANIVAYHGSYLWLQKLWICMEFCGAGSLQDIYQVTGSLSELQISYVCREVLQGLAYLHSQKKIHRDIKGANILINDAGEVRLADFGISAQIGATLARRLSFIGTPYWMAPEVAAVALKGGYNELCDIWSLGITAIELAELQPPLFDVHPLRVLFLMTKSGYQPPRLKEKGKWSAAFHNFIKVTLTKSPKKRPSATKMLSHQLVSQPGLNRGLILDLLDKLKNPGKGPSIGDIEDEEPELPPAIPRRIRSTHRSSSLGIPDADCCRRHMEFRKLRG
In general terms: TR-FRET usually uses a lanthanide donor and a delayed reading to cut background.
In general, Ki refers to the dissociation constant of the complex between target and ligand, obtained from inhibition or displacement. Low values mean a stronger hold on the target, high ones a looser hold on the target. `CN1CCN(c2ccc(-c3n[nH]c4cc(=O)n(-c5ccccc5)cc34)cc2)CC1` [Example 1, 3-[4-(4-Methylpiperazin-1-yl)phenyl]-5-phenyl-1,5-dihydro-6H-pyrazolo[4,3-c]pyridin-6-one] yielded a Ki of 100 to 500 nM.
Consider `CN1CCN(c2ccc(-c3n[nH]c4cc(=O)n(-c5ccccc5F)cc34)cc2)CC1` [Example 2, 5-(2-Fluorophenyl)-3-[4-(4-methylpiperazin-1-yl)phenyl]-1,5-dihydro-6H-pyrazolo[4,3-c]pyridin-6-one], for which the Ki is no more than 100 nM.
With `Cc1ccccc1-n1cc2c(-c3ccc(N4CCN(C)CC4)cc3)n[nH]c2cc1=O` [Example 3, 3-[4-(4-Methylpiperazin-1-yl)phenyl]-5-(o-tolyl)-1,5-dihydro-6H-pyrazolo[4,3-c]pyridin-6-one], the Ki was no more than 100 nM.
Consider `COc1ccccc1-n1cc2c(-c3ccc(N4CCN(C)CC4)cc3)n[nH]c2cc1=O` [Example 4, 5-(2-Methoxyphenyl)-3-[4-(4-methylpiperazin-1-yl)phenyl]-1,5-dihydro-6H-pyrazolo[4,3-c]pyridin-6-one], for which the Ki is no more than 100 nM.
Take `COc1cccc(F)c1-n1cc2c(-c3ccc(N4CCN(C)CC4)cc3)n[nH]c2cc1=O` [Example 5, 5-(2-Fluoro-6-methoxyphenyl)-3-[4-(4-methylpiperazin-1-yl)phenyl]-1,5-dihydro-6H-pyrazolo[4,3-c]pyridin-6-one]: the Ki is no more than 100 nM.
The molecule `CN1CCN(c2ccc(-c3n[nH]c4cc(=O)n(-c5cccc6c5CCNC6)cc34)cc2)CC1` [Example 6, 3-[4-(4-Methylpiperazin-1-yl)phenyl]-5-(1,2,3,4-tetrahydroisoquinolin-5-yl)-1,5-dihydro-6H-pyrazolo[4,3-c]pyridin-6-one] registered a Ki of no more than 100 nM.
The value for `CN1CCN(c2ccc(-c3n[nH]c4cc(=O)n(-c5cccc6c5OCCO6)cc34)cc2)CC1` [Example 7, 5-(2,3-Dihydrobenzo[b][1,4]dioxin-5-yl)-3-[4-(4-methylpiperazin-1-yl)phenyl]-1,5-dihydro-6H-pyrazolo[4,3-c]pyridin-6-one] was no more than 100 nM; that for `CN1CCN(c2ccc(-c3n[nH]c4cc(=O)n(-c5ncccc5F)cc34)cc2)CC1` [Example 8, 5-(3-Fluoropyridin-2-yl)-3-[4-(4-methylpiperazin-1-yl)phenyl]-1,5-dihydro-6H-pyrazolo[4,3-c]pyridin-6-one] was no more than 100 nM.
For `CN1CCN(c2ccc(-c3n[nH]c4cc(=O)n(C5CCCCC5)cc34)cc2)CC1` [Example 9, 5-Cyclohexyl-3-[4-(4-methylpiperazin-1-yl)phenyl]-1,5-dihydro-6H-pyrazolo[4,3-c]pyridin-6-one], the Ki lay in the range of 100 to 500 nM.
Molecule `CN1CCN(c2ccc(-c3n[nH]c4cc(=O)n(C5CCOC5)cc34)cc2)CC1` (stereo not shown) [Example 10, 3-[4-(4-Methylpiperazin-1-yl)phenyl]-5-(tetrahydrofuran-3-yl)-1,5-dihydro-6H-pyrazolo[4,3-c]pyridin-6-one] registered a Ki of 500 to 3000 nM.
`CN1CCN(c2ccc(-c3n[nH]c4cc(=O)n(Cc5ccccc5)cc34)cc2)CC1` [Example 11, 5-Benzyl-3-[4-(4-methylpiperazin-1-yl)phenyl]-1,5-dihydro-6H-pyrazolo[4,3-c]pyridin-6-one] had a Ki of 100 to 500 nM.
Consider `CN1CCN(c2ccc(-c3n[nH]c4cc(=O)n(CC5CCCCC5)cc34)cc2)CC1` [Example 12, 5-(Cyclohexylmethyl)-3-[4-(4-methylpiperazin-1-yl)phenyl]-1,5-dihydro-6H-pyrazolo[4,3-c]pyridin-6-one], for which the Ki was 100 to 500 nM.
The molecule `CC(c1ccccc1C(F)(F)F)n1cc2c(-c3ccc(N4CCN(C)CC4)cc3)n[nH]c2cc1=O` (stereo not shown) [Example 13, 3-[4-(4-Methylpiperazin-1-yl)phenyl]-5-{1-[2-(trifluoromethyl)phenyl]ethyl}-1,5-dihydro-6H-pyrazolo[4,3-c]pyridin-6-one] displayed a Ki of no more than 100 nM.
In turn, `CC(c1ccccc1)n1cc2c(-c3ccc(N4CCN(C)CC4)cc3)n[nH]c2cc1=O` (stereo not shown) [Example 14, 3-[4-(4-Methylpiperazin-1-yl)phenyl]-5-(1-phenylethyl)-1,5-dihydro-6H-pyrazolo[4,3-c]pyridin-6-one] returned a Ki of no more than 100 nM.
For the molecule `CN1CCN(c2ccc(-c3n[nH]c4cc(=O)n(C5CCN(C)C5=O)cc34)cc2)CC1` (stereo not shown) [Example 15, 5-(1-Methyl-2-oxopyrrolidin-3-yl)-3-[4-(4-methylpiperazin-1-yl)phenyl]-1,5-dihydro-6H-pyrazolo[4,3-c]pyridin-6-one], the Ki lay within 500 to 3000 nM.
In the case of `CC1OCCCC1n1cc2c(-c3ccc(N4CCN(C)CC4)cc3)n[nH]c2cc1=O` (stereo not shown) [Example 16, 3-[4-(4-Methylpiperazin-1-yl)phenyl]-5-(2-methyltetrahydro-2H-pyran-3-yl)-1,5-dihydro-6H-pyrazolo[4,3-c]pyridin-6-one], the Ki lay in the range of 100 to 500 nM.
